Measurements as given in US10822312B2, “Substituted quinazoline compounds and methods of use” (ARAXES PHARMA LLC, priority 2016, dated 2020).

Experiments:
[1] = biological target: T1, KRAS WT (GDP-loaded, hexahistidine tagged, truncated 1-169) (Homo sapiens, UniProt P01116); assay: SOS-mediated nucleotide exchange assay, KRAS WT; assay type: biochemical; details: SOS(cat)-mediated Bodipy-GDP exchange
T1 construct: truncated (1-169) KRAS proteins; hexahistidine
Description: (§1) GDP-loaded, hexahistidine tagged, truncated (1-169) KRAS proteins (WT or G12D) were used (stored in protein dilution buffer [20 mM HEPES pH=7.5, 150 NaCl, 1 mM MgCl2]). 1 μL of the respective KRAS protein (1.88 μM stock, 0.125 μM final) was mixed with 10 μL of assay buffer (30 mM TRIS pH=7.5, 1.5 mM MgCl2, 0.135 μM Bodipy-GDP [20 mM TRIS pH=7.5, 1.0 mM MgCl2, 0.09 μM final]) and 1 μL of 15× compound stock in 30% DMSO (final DMSO conc. 2%). After 30 min incubation at room temperature, the exchange reaction was initiated by addition of 3 μL SOS(cat) (catalytic domain, 2.5 μM stock in protein dilution buffer, 0.5 μM final). The assay was carried out in black low-volume plates (Corning #4514) and fluorescence was monitored (485 nm excitation and 510 nm emission) for 45 minutes after initiation at 60-s intervals.
(§2) For data analysis, relative fluorescence values for each sample after subtracting the background values (before SOS addition) were plotted in graph pad. Rates were then calculated by fitting the data by non-linear regression (one phase association curve). Typically, 6 dilutions per compound (3-fold series, starting at 60 μM final) were measured. Calculated rates vs compound concentrations were fitted by non-linear regression (log(inhibitor) vs response-Variable slope (four parameters) fit) to determine IC50 values.
(§3) Compound numbers correspond to the numbers and structures provided in Tables 1, 2 and 3 and Examples 1-4.

[2] = biological target: T2, KRAS G12D (GDP-loaded, hexahistidine tagged, truncated 1-169) (Homo sapiens, UniProt P01116, G12D); assay: SOS-mediated nucleotide exchange assay, KRAS G12D; assay type: biochemical; details: SOS(cat)-mediated Bodipy-GDP exchange
T2 construct: truncated (1-169) KRAS proteins; hexahistidine
T2 sequence (P01116 1-169 isoform P01116-2 G12D): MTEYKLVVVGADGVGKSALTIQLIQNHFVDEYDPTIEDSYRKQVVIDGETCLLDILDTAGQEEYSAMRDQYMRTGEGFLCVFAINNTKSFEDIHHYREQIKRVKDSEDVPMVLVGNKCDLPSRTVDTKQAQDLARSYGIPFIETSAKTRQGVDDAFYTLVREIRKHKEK
Description: as §1, §2, §3

T1 sequence (P01116 1-169 isoform P01116-2): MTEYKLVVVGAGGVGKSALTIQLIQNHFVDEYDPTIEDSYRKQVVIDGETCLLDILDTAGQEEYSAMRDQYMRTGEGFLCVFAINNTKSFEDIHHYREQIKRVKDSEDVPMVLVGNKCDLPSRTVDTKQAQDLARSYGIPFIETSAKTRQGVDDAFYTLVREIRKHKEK

IC50 [1] [µM] | IC50 [2] [µM] | SMILES
< 15 | > 15 | CC(=O)N1CCN(c2nc(OCCCN(C)C)nc3c(F)c(-c4cc(O)cc5ccccc45)c(Cl)cc23)CC1 (single isomer, unassigned) [Compound 18, 1-(4-(6-chloro-2-(3-(dimethylamino)propoxy)-8-fluoro-7-(3-hydroxynaphthalen-1-yl)quinazolin-4-yl)piperazin-1-yl)ethanone]
< 15 | > 15 | CN(C)CCCOc1nc(N2CCNC(CC#N)C2)c2cc(Cl)c(-c3cc(O)cc4ccccc34)c(F)c2n1 (centres unmarked) [Compound 170]
> 15 | > 15 | Cc1cc(N)c2[nH]ncc2c1-c1c(Cl)cc2c(N3CCNCC3)nc(OCCCN(C)C)nc2c1F [Compound 173]
> 15 | > 15 | CN(C)CCCOc1nc(N2CCC(C#N)CC2)c2cc(Cl)c(-c3cc(O)cc4ccccc34)c(F)c2n1 [Compound 165]
> 15 | > 15 | CN(C)CCCOc1nc(N2CCN[C@@H](C(N)=O)C2)c2cc(Cl)c(-c3cc(O)cc4ccccc34)c(F)c2n1 [Compound 164]
> 15 | < 15 | CC(=O)NCCCCCN(C)CCCOc1nc(N2CCNCC2)c2cc(Cl)c(-c3cc(O)cc4ccccc34)c(F)c2n1 [Compound 172]
– | > 15 | Cc1cc(N)c2[nH]ncc2c1-c1c(Cl)cc2c(N3CCOCC3)nc(OCCCN(C)C)nc2c1F [Compound 174]
– | > 15 | CN(CCCCCN=[N+]=[N-])CCCOc1nc(N2CCNCC2)c2cc(Cl)c(-c3cc(O)cc4ccccc34)c(F)c2n1 [Compound 168]
> 15 | – | CN(C)CCCOc1nc(N2CCNCC2)c2cc(C(F)(F)F)c(-c3cc(O)cc4ccccc34)c(F)c2n1 [Compound 147]
> 15 | > 15 | C[C@@H]1CN(c2nc(OCCCN(C)C)nc3c(F)c(-c4cc(O)cc5ccccc45)c(Cl)cc23)[C@@H](C)CN1 (atropisomer, axis not shown) [Compound 97]
> 15 | > 15 | CN(C(=O)CCl)C1CN(c2nc(N3CCNCC3)c3cc(Cl)c(-c4cc(O)cc5ccccc45)c(F)c3n2)C1 [Compound 351]

Continued, molecule first:

SMILES | IC50 [1] [µM] | IC50 [2] [µM]
CN(C)CCCOc1nc(N2CCOCC2)c2cc(Cl)c(-c3cc(O)cc4ccccc34)c(F)c2n1 (atropisomer, axis not shown) [Compound 151] | < 15 | > 15
CN(C(=O)CCl)C1CN(c2nc(N3CCOCC3)c3cc(Cl)c(-c4cc(O)cc5ccccc45)c(F)c3n2)C1 [Compound 350] | > 15 | > 15
CN(C)CCCOc1nc(N2CCOCC2)c2cc(C(F)(F)F)c(-c3cc(O)cc4ccccc34)c(F)c2n1 (atropisomer, axis not shown) [Compound 162] | < 15 | > 15
CN(C)CCCOc1nc(N2CCNCC2)c2cc(C(F)(F)F)c(-c3cc(O)cc4ccccc34)c(F)c2n1 (atropisomer, axis not shown) [Compound 156] | – | < 15
CN(C(=O)CN)C1CN(c2nc(N3CCNCC3)c3cc(Cl)c(-c4cc(O)cc5ccccc45)c(F)c3n2)C1 [Compound 344] | > 15 | < 15
CN(C)C1CN(c2nc(N3CCNCC3)c3cc(Cl)c(-c4cc(O)cc5ccccc45)c(F)c3n2)C1 [Compound 334, 4-(6-Chloro-2-(3-(dimethylamino)azetidin-1-yl)-8-fluoro-4-(piperazin-1-yl)quinazolin-7-yl)naphthalen-2-ol] | – | < 15
Cc1ccc2[nH]ncc2c1-c1c(Cl)cc2c(N3CCNCC3)nc(OCCCN(C)C)nc2c1F [Compound 108] | > 15 | > 15
CN(C)C1CN(c2nc(N3CCNCC3)c3cc(Cl)c(-c4cc(O)cc5ccccc45)c(F)c3n2)C1 (atropisomer, axis not shown) [Compound 339] | > 15 | –
CC(=O)NCCCCCN(C)CCCOc1nc(N2CCOCC2)c2cc(Cl)c(-c3cc(O)cc4ccccc34)c(F)c2n1 [Compound 171] | > 15 | > 15
CN(C)CCCOc1nc(N2CCNCC2)c2cc(Cl)c(-c3c(O)cccc3F)c(F)c2n1 [Compound 112] | > 15 | > 15
CN(C)CCCOc1nc(N2CCN[C@@H](CO)C2)c2cc(Cl)c(-c3cc(O)cc4ccccc34)c(F)c2n1 [Compound 155] | > 15 | < 15
C[C@@H]1CN(c2nc(N3CC(N(C)C)C3)nc3c(F)c(-c4cc(O)cc5ccccc45)c(Cl)cc23)[C@@H](C)CN1 (atropisomer, axis not shown) [Compound 330] | > 15 | > 15
CN(C)CCCOc1nc(N2CCNCC2)c2cc(Cl)c(-c3cc(O)cc4ccccc34)c(F)c2n1 (single isomer, unassigned) [Compound 22, 4-(6-chloro-2-(3-(dimethylamino)propoxy)-8-fluoro-4-(piperazin-1-yl)quinazolin-7-yl)naphthalen-2-ol] | > 15 | < 15
CN(C)CC(O)COc1nc(N2CCNCC2)c2cc(Cl)c(-c3cc(O)cc4ccccc34)c(F)c2n1 (centres unmarked) [Compound 120] | > 15 | > 15
CC(=O)N1CCN(c2nc(OCCCN(C)C)nc3c(F)c(-c4cc(O)cc5ccccc45)c(C(F)(F)F)cc23)CC1 (atropisomer, axis not shown) [Compound 158] | < 15 | > 15
CN(C)CCCOc1nc(N2CCN[C@@H](C#N)C2)c2cc(Cl)c(-c3cc(O)cc4ccccc34)c(F)c2n1 [Compound 166] | > 15 | > 15
CN(C)CCCOc1nc(N2CCNC(CC(N)=O)C2)c2cc(Cl)c(-c3cc(O)cc4ccccc34)c(F)c2n1 (centres unmarked) [Compound 169] | – | < 15
O=S(=O)(F)CCOc1nc(N2CCOCC2)c2cc(Cl)c(-c3cc(O)cc4ccccc34)c(F)c2n1 [Compound 176] | > 15 | > 15
CN(CCCCCN=[N+]=[N-])CCCOc1nc(N2CCOCC2)c2cc(Cl)c(-c3cc(O)cc4ccccc34)c(F)c2n1 [Compound 167] | – | > 15
CN(C(=O)CO)C1CN(c2nc(N3CCNCC3)c3cc(Cl)c(-c4cc(O)cc5ccccc45)c(F)c3n2)C1 [Compound 346] | > 15 | > 15
CN(CCOc1nc(N2CCOCC2)c2cc(Cl)c(-c3cc(O)cc4ccccc34)c(F)c2n1)C(=O)CCl [Compound 175] | > 15 | > 15
